Measurements from PubChem BioAssay AID2060501 (Molecular Pharmacology Branch, DTP, NCI, 2025).
pIC50: −log10 of the molar value. Several values for one entry are separate records, joined by “and”; a condition that tells them apart may be missing. Equal values may be shown once.

System: 282377-053-R-J1-PDC complex spheroids, viability
Assay: Anticancer human tumor 282377-053-R-J1-PDC patient-derived colon adenocarcinoma cell line growth inhibition [GQUAD]
Conditions: for viability, T/C: stronger effect = lower value
Description: DNA G-quadruplex Stabilizer Agents in Combinations in Complex Spheroids
A high-throughput screen of multi-cell type tumor spheroids was designed to identify active combinations of DNA G-quadruplex stabilizer agents and targeted small molecules. Complex spheroids include a stromal component modeled by human endothelial cells (HUVEC) and fibroblasts modeled by human mesenchymal stem cells (MSCs). The concentration ranges selected for each drug and investigational agent were based upon clinically achievable concentrations if the clinical Cmax of the agent was known.
Compounds. The drugs and investigational agents: pidnarulex (CX-5461; NSC782164), APTO-253 (NSC789042), BRACO-19 (NSC847499), peposertib (NSC802822), ceralasertib (NSC780249), elimusertib (NSC800525), camonsertib (NSC841442), AZD-1390 (NSC803789), olaparib (NSC753686), talazoparib (NSC767125), ART-558 (NSC835418), sotorasib (NSC818433), MRTX-1133 (NSC836407), SN-38 (NSC673596), topotecan (NSC609699), etoposide (NSC141540), doxorubicin (NSC123127), gemcitabine (NSC613327), 5-fluorouracil (NSC19893), paclitaxel (NSC125973), vemurafenib (NSC761431), panobinostat (NSC761190), R-306465 (JNJ-16241199; NSC773264), adavosertib (NSC754352), TP-3654 (NSC805149), carboplatin (NSC241240), KSQ-4279 (NSC840948), and staurosporine (NSC755774) were obtained from the National Cancer Institute (NCI) Developmental Therapeutics Program Chemical Repository (34). The FDA-approved anticancer drug set is available from the NCI Developmental Therapeutics Program. […] The stock solutions were prepared in dimethyl sulfoxide (DMSO, Sigma-Aldrich, St. Louis, MO, cat. D2650) at 800-fold the tested concentration and stored at -70 degrees C prior to their use. All drugs and investigational agents were tested over a range starting from a high concentration at or near the clinical Cmax and decreasing in half-log increments. If the clinical Cmax for an agent had not been determined, the highest concentration tested was 10 microM.
2.3 Cell Culture. All cells were maintained in an incubator at 37 degrees C and 5% CO2 with 95% humidity. The PDC lines were cultured according to standard operating procedures established by the NCI PDMR. All PDCs were thawed and cultured in Matrigel-coated flasks prepared with a working solution of 1X Ham's F-12 nutrient mix, without supplementation (Invitrogen, cat. 11765054), 100 U/mL penicillin-streptomycin (Invitrogen, cat. 15140122), and 2.5% Matrigel (Corning Inc., cat. 354248) for the first three passages. The 857933-349-R-J2-PDC line was cultured in 6C/Colon 1B media, which includes advanced DMEM/F-12 (Thermo Fisher Scientific, cat. 12634028), 10 mM HEPES (Thermo Fisher Scientific, cat. 15630080), 1X GlutaMAX supplement (Thermo Fisher Scientific, cat. 35050061), 0.1 mg/mL primocin (InvivoGen, cat. ant-pm-2), 10% defined fetal bovine serum, heat inactivated (HyClone Laboratories Inc., cat. SH30070.03HI), 50% L-WRN conditioned media (ATCC, cat. CRL-3276), 1.25 mM N-Acetyl-L-cysteine (Sigma-Aldrich, cat. A9165), 10 mM nicotinamide (Sigma-Aldrich, cat. N0636), 1X B-27 supplement (Thermo Fisher Scientific, cat. 17504044), 1X N-2 supplement (Thermo Fisher Scientific, cat. 17502048), 10 microM Y-27632 dihydrochloride (Tocris Bioscience, cat. 1254), and 50 ng/mL human EGF recombinant protein (Thermo Fisher Scientific, cat. PHG0311). The 485176-168-R4-J1-PDC line was cultured in Panc media, which includes all 6C/Colon 1B media components plus 100 ng/mL human FGF-10 (Thermo Fisher Scientific, cat. 100-26), 500 nM SB-431542 (Selleckchem, cat. S1067), and gastrin (Tocris, cat. 3006).
[…]
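Also: spheroids exposed to compounds for 7 days before readout.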
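For viability, T/C in this document: percent of vehicle DMSO control viability with 100% = untreated-like growth.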

Cc1[nH]c2ccccc2c1CCNCc1ccc(/C=C/C(=O)NO)cc1 + Cc1cnc(CNC(=O)c2c(=O)c3ccc(N4CCCN(C)CC4)nc3n3c2sc2ccccc23)cn1
pIC50 (curve of first compound, second compound 0.0316 µM): 6.85 | pIC50 (curve of first compound, second compound 0.1 µM): 6.91 | pIC50 (curve of first compound, second compound 0.316 µM): 7.20 | pIC50 (curve of first compound, second compound 1 µM): 7.75 | pIC50 (curve of first compound, second compound 3.16 µM): > 9.00 | pIC50 (curve of first compound, second compound 10 µM): > 9.00 | viability, T/C (second compound 0.0316 µM, first compound 0.000999 µM): 86.4% | viability, T/C (second compound 0.0316 µM, first compound 0.00316 µM): 87.7% | viability, T/C (second compound 0.0316 µM, first compound 0.00999 µM): 129% | viability, T/C (second compound 0.0316 µM, first compound 0.0316 µM): 95.2% | viability, T/C (second compound 0.0316 µM, first compound 0.0999 µM): 67.7% | viability, T/C (second compound 0.0316 µM, first compound 0.316 µM): 7.24% | viability, T/C (second compound 0.1 µM, first compound 0.000999 µM): 107% | viability, T/C (second compound 0.1 µM, first compound 0.00316 µM): 86.6% | viability, T/C (second compound 0.1 µM, first compound 0.00999 µM): 106% | viability, T/C (second compound 0.1 µM, first compound 0.0316 µM): 84.3% | viability, T/C (second compound 0.1 µM, first compound 0.0999 µM): 60.7% | viability, T/C (second compound 0.1 µM, first compound 0.316 µM): 1.3% | viability, T/C (second compound 0.316 µM, first compound 0.000999 µM): 88.4% | viability, T/C (second compound 0.316 µM, first compound 0.00316 µM): 75.8% | viability, T/C (second compound 0.316 µM, first compound 0.00999 µM): 86.2% | viability, T/C (second compound 0.316 µM, first compound 0.0316 µM): 67.8% | viability, T/C (second compound 0.316 µM, first compound 0.0999 µM): 37.9% | viability, T/C (second compound 0.316 µM, first compound 0.316 µM): 2.14% | viability, T/C (second compound 1 µM, first compound 0.000999 µM): 62.9% | viability, T/C (second compound 1 µM, first compound 0.00316 µM): 53.8% | viability, T/C (second compound 1 µM, first compound 0.00999 µM): 56.3% | viability, T/C (second compound 1 µM, first compound 0.0316 µM): 43% | viability, T/C (second compound 1 µM, first compound 0.0999 µM): 33% | viability, T/C (second compound 1 µM, first compound 0.316 µM): 0.07% | viability, T/C (second compound 3.16 µM, first compound 0.000999 µM): 51.1% | viability, T/C (second compound 3.16 µM, first compound 0.00316 µM): 48% | viability, T/C (second compound 3.16 µM, first compound 0.00999 µM): 38.5% | viability, T/C (second compound 3.16 µM, first compound 0.0316 µM): 40.5% | viability, T/C (second compound 3.16 µM, first compound 0.0999 µM): 19.6% | viability, T/C (second compound 3.16 µM, first compound 0.316 µM): 0.2% | viability, T/C (second compound 10 µM, first compound 0.000999 µM): 33.8% | viability, T/C (second compound 10 µM, first compound 0.00316 µM): 32.9% | viability, T/C (second compound 10 µM, first compound 0.00999 µM): 47% | viability, T/C (second compound 10 µM, first compound 0.0316 µM): 37% | viability, T/C (second compound 10 µM, first compound 0.0999 µM): 0.26% | viability, T/C (second compound 10 µM, first compound 0.316 µM): 0.36%

Cc1[nH]c2ccc(F)cc2c1-c1nc2c3cccnc3c3ncccc3c2[nH]1
viability, T/C (compound 0.0316 µM): 91.7% [middle of 12 runs] | pIC50 (compound alone, run of 04/16/2024): < 5.00 and 5.08 and 5.09 | pIC50 (compound alone, run of 04/22/2024): < 5.00 and 5.04 and 5.13
